Here are results for 19 compounds from ChEMBL document CHEMBL4184301, “Two new coumarins and a new xanthone from the leaves of Rhizophora mucronata” (Bioorg Med Chem Lett, 2018).

Series [1] concerns HeLa. In words: Antiproliferative activity against human HeLa cells after 48 hrs by CCK8 assay. In kind it is functional, cell-based. On the technique in general: Tetrazolium assays rely on reduction of a dye to a coloured formazan, in cell work by metabolically active cells.
Series [2] concerns HL-60. The series is described as follows: Antiproliferative activity against human HL60 cells after 48 hrs by CCK8 assay. In kind it is functional, cell-based. Conditions: HL-60, 48 h.
The nature of series [3]: Cytotoxicity against mouse NIH/3T3 cells after 48 hrs by CCK8 assay. Format: cell-based, NIH3T3.
Series [4] in a line: Selectivity index, ratio of CC50 for mouse […] cells to IC50 for human HL60 cells. In kind it is toxicity. The settings on record: NIH/3T3 cells (printed […]) and HL60 cells, read-out: Ratio CC50/IC50.

With `C/C=C(\C)C(=O)c1c(O)c(/C(=C/C(=O)O)c2ccccc2)c2c(c1OC)C=CC(C)(C)O2`, the IC50 (in general, the concentration at which inhibition is half-maximal) in series [1] is 36.4 µM; in series [2] it was 2.2 µM. Also, the CC50 (in general, the concentration giving 50% cytotoxicity) at 48 h in series [3] stood at 41.1 µM. Also, the selectivity ratio in series [4] is 19.2.

As for `C[C@H]1Oc2c3c(c4c(-c5ccccc5)cc(=O)oc4c2C(=O)[C@@H]1C)OC(C)(C)C=C3`, the IC50 in series [1] was 8.3 µM; in series [2], 35.3 µM.

With `C[C@@H]1C(=O)c2c(c3c(c4c(-c5ccccc5)cc(=O)oc24)OC(C)(C)C=C3)O[C@@H]1C`, the IC50 was 21.6 µM in series [1] and greater than 60 µM in series [2].

Turning to `CC(C)=CCc1c(O)cc2oc3c(O)cccc3c(=O)c2c1O`, the values for the IC50 in series [1] and in series [2] were 37.1 µM and 6.3 µM, respectively.

With `C=C(C)C(O)Cc1c(O)cc2c(=O)c3cccc(O)c3oc2c1O` (stereo unspecified), the IC50 came out at 14.5 µM in series [1] and 36.8 µM in series [2].

As to `C/C=C(\C)C(=O)c1c(OC)c2c(c3c(-c4ccccc4)cc(=O)oc13)OC1C2C1(C)C` (stereo unspecified), the IC50 is 29.9 µM in series [1] and 2.6 µM in series [2]. In series [3], the half-maximal cytotoxic concentration (CC50) at 48 h stood at 22.3 µM. Further, the selectivity ratio in series [4] was 8.6.

Turning to `CO[C@H]1c2c(c3c(c4c(-c5ccccc5)cc(=O)oc24)OC(C)(C)C=C3)O[C@H](C)[C@H]1C`, the IC50 in series [1] was 3.8 µM; in series [2], 12.9 µM.

Take `C/C=C(/C)C(=O)c1c2c(c(OC)c3c(-c4ccccc4)cc(=O)oc13)C=CC(C)(C)O2`: the results for the IC50 in series [1] and in series [2] were 42.8 µM and 18.3 µM, respectively.

Turning to `CC1(C)C=Cc2c(cc3oc4c(O)cccc4c(=O)c3c2O)O1`, the IC50 turned out to be 26 µM in series [1] and 2.7 µM in series [2]. The compound also displayed a CC50 at 48 h in series [3] of 25.3 µM. Further, the selectivity ratio in series [4] worked out at 9.4.

Turning to `C[C@H]1Oc2c3c(c(C(=CC(=O)O)c4ccccc4)c(O)c2C(=O)[C@@H]1C)OC(C)(C)C=C3` (mixture of isomers), the IC50 was greater than 60 µM in series [1] and 24.5 µM in series [2].

Take `COC(=O)C=C(c1ccccc1)c1c(O)c2c(c3c1OC(C)(C)C=C3)O[C@H](C)[C@@H](C)C2=O` (mixture of isomers): the IC50 stood at 33 µM in series [1] and 10.7 µM in series [2].

As for `C[C@@H]1C(=O)c2c(O)c(C(=CC(=O)O)c3ccccc3)c3c(c2O[C@@H]1C)C=CC(C)(C)O3` (mixture of isomers), the IC50 in series [1] is 21.2 µM; in series [2], 35.6 µM.

Consider `O=C(O)c1cccc(O)c1O` [2,3-DIHYDROXYBENZOIC ACID], for which the IC50 in series [1] and in series [2] was greater than 60 µM in each case.

On to `O=c1cc(-c2ccc(O)c(-c3c(O)cc(O)c4c(=O)cc(-c5ccc(O)cc5)oc34)c2)oc2cc(O)cc(O)c12` [AMENTOFLAVONE], for which the half-maximal inhibitory concentration (IC50) was 5.3 µM in series [1] and 51.2 µM in series [2].

As for `O=c1cc(-c2ccc(O)cc2)oc2cc(O)cc(O)c12` [APIGENIN], the IC50 is 21.3 µM in series [1] and 22.3 µM in series [2].

Turning to `CC(C)=CCc1c2c(c3oc(=O)cc(-c4ccccc4)c3c1O)C(=O)[C@H](C)[C@@H](C)O2` [BRASIMARIN C], the IC50 in series [1] was 4.4 µM; in series [2], 10.1 µM.

As for `CC1(C)C=Cc2c(cc3oc4c(O)c(O)ccc4c(=O)c3c2O)O1` [JACAREUBIN], the IC50 in series [1] was found to be 4.8 µM; in series [2] it was 1 µM. Besides, it took 10.2 µM to reach half-maximal cytotoxicity in series [3] (CC50 at 48 h). In series [4], the selectivity ratio was 10.2.

For `CO[C@@]12[C@H](COC(N)=O)C3=C(C(=O)C(C)=C(N)C3=O)N1C[C@@H]1N[C@@H]12` [MITOMYCIN], the concentration for half-maximal inhibition (IC50) in series [1] turned out to be 1.13 µM; in series [2], 0.19 µM.

With `CC(=O)O[C@H]1C(=O)[C@@]2(C)[C@H]([C@H](OC(=O)c3ccccc3)[C@]3(O)C[C@H](OC(=O)[C@H](O)[C@@H](NC(=O)c4ccccc4)c4ccccc4)C(C)=C1C3(C)C)[C@]1(OC(C)=O)CO[C@@H]1C[C@@H]2O` [PACLITAXEL], the IC50 in series [1] came out at 0.023 µM; in series [2], 0.0026 µM.
